Entries after “also recorded” stand apart in the source; their conditions may differ.
Assays:
WiDr (NTR+ve) = assay: Cell proliferation (sulphorhodamine B) IC50, NTR-transfected WiDr human colon cells; format: cell-based; details: for WiDr WT:NTR IC50 Ratio: 4 h, sensitivity ratio for NTR expression; for IC50: WiDr, 4 h drug exposure, growth 5 further days
A549 (P450R+ve) = assay: Cell proliferation (sulphorhodamine B) IC50, P450R-transfected A549 human lung cells, anoxia vs 20% O2; format: cell-based; details: for A549 (P450R+ve) 20% O2/anoxia IC50 Ratio: 4 h, sensitivity ratio for hypoxia; for IC50: A549, 4 h drug exposure under 0% oxygen
[1] = tested on: WiDr human colon carcinoma xenografts (90% NTR-ve and 10% NTR+ve); assay: WiDr in vivo growth delay assay, mixed WiDr WT / WiDr NTR xenografts; details: single dose at MTD (750 μmol/kg), xenografts treated at 300 mm3
Excerpt: FIG. 2a depicts in vivo activity of compound IIb-7 and its corresponding phosphate pre-prodrug, Ib-7P, against human colon carcinoma xenografts grown by inoculating mixtures of 90% NTR−ve and 10% NTR+ve Wi Dr cells;
FIG. 2b are plots of % animals survival versus time (days), in which open circles denote wild-type WiDR human colon carcinoma xenografts, and filled circles denote tumours containing WiDr cells transfected with the E. coli NTR gene;
In the WiDr in vivo growth delay assay, xenografts containing mixtures of WiDr^WT and WiDr^NTR cells are grown to 300 mm^3 and treated with a single dose of prodrug at its MTD. Tumour growth is monitored over time and animals are euthanased when mean tumour volume >1600 mm^3. Data is presented as time to death.

in vivo = details: mouse
[2] = tested on: SiHa human tumour xenografts; assay: SiHa xenograft excision / clonogenic assay, with or without 15 Gy radiation; format: in vivo; details: for Activity against hypoxic cells: 20% of respective MTDs, after radiation
Rif-1 tumour = assay: In vivo excision assay with the Rif-1 tumour (15 Gy)
Description: FIG. 1b depicts an excision assay method: 300-500 mg Rif-1 xenograft→ 15 Gy→ Single prodrug dose @ MTD→ 18 hr→ excision→ disaggregate→ plate 10^2-10^5 cells→ 12 days→ colonies counted;
This employs an in vivo excision assay with the Rif-1 tumour, where the oxic tumour cells are sterilised using 15 Gy of radiation, and the cytotoxicity of an agent against the remaining hypoxic cells can be quantitated. […] Thus Ib-7P acts as a hypoxia-selective cytotoxin in vivo.

[3] = 75% of MTD, single i.p. dose, no radiation, relative to vehicle controls, excision 18 h

| SMILES | melting point [°C] | WiDr WT:NTR IC50 Ratio (WiDr (NTR+ve)) | IC50 (WiDr (NTR+ve)) [µM] | A549 (P450R+ve) 20% O2/anoxia IC50 Ratio (A549 (P450R+ve)) | IC50 (A549 (P450R+ve)) [µM] | further results |
| --- | --- | --- | --- | --- | --- | --- |
| O=C(NCCCOP(=O)(O)O)c1cc(N(CCCl)CCCl)c([N+](=O)[O-])cc1[N+](=O)[O-] | 195 to 200 | – | – | – | – | – |
| CC(Br)CN(CC(C)Br)c1c(C(=O)NCCOP(=O)(O)O)cc([N+](=O)[O-])cc1[N+](=O)[O-] (stereo not drawn) | 157 to 161 | – | – | – | – | – |
| CS(=O)(=O)c1cc([N+](=O)[O-])c(C(=O)NCCO)cc1N(CCBr)CCBr [IIa-7s, 5-[Bis(2-Bromoethyl)Amino]-N-(2-hydroxyethyl)-4-(Methylsulfonyl)-2-Nitrobenzamide] | 126 to 127 | 35 | 9.3 | 109 | 2.1 | – |
| O=C(NCCCCO)c1cc(N(CCBr)CCBr)c([N+](=O)[O-])cc1[N+](=O)[O-] [IIa-9, N-(4-Hydroxybutyl)-5-[Bis(2-Bromoethyl)Amino]-2,4-Dinitrobenzamide] | 123 to 124 | 58 | 6.4 | 9.4 | 22 | – |
| O=C(NCCCCCCO)c1cc([N+](=O)[O-])cc([N+](=O)[O-])c1N1CC1 [IIb-1, 2-(Aziridin-1-yl)-N-(6-Hydroxyhexyl)-3,5-Dinitrobenzamide] | 189 to 192 | 2 | 61 | <1.3 | 384 | – |
| O=C(NCCO)c1cc([N+](=O)[O-])cc([N+](=O)[O-])c1N(CCCl)CCCl [IIb-2, 2-[Bis(2-Chloroethyl)Amino]-N-(2-Hydroxyethyl)-3,5-Dinitrobenzamide] | 109 to 111 | 47 | 11.8 | 20 | 18 | – |
| O=C(NCCCO)c1cc([N+](=O)[O-])cc([N+](=O)[O-])c1N(CCCl)CCCl [IIb-3, 2-[Bis(2-Chloroethyl)Amino]-N-(3-Hydroxypropyl)-3,5-Dinitrobenzamide] | 89 to 91 | 59 | 13.6 | 9 | 30 | – |
| O=C(NCCO)c1cc([N+](=O)[O-])cc([N+](=O)[O-])c1N(CCBr)CCBr [IIb-7, 2-[Bis(2-Bromoethyl)Amino]-N-(2-Hydroxyethyl)-3,5-Dinitrobenzamide] | – | 61 | 0.3 | 56 | 0.8 | over-all survival [1]: 6%; time to first treatment failure [1]: 17 days; MTD (in vivo): 1000 µmol/kg |
| CC(Br)CN(CC(C)Br)c1c(C(=O)NCCO)cc([N+](=O)[O-])cc1[N+](=O)[O-] (stereo not drawn) [IIb-7a, 2-[Bis(2-Bromopropyl)Amino]-N-(2-Hydroxyethyl)-3,5-Dinitrobenzamide] | 127 to 130 | 27 | 0.5 | 5.3 | 1 | – |
| O=C(NCCCO)c1cc([N+](=O)[O-])cc([N+](=O)[O-])c1N(CCBr)CCBr [IIb-8, 2-[Bis(2-Bromoethyl)Amino]-N-(3-Hydroxypropyl)-3,5-Dinitrobenzamide] | 89 to 94 | 13 | 0.4 | 24 | 1.1 | – |
| O=C(NCCO)c1cc([N+](=O)[O-])cc([N+](=O)[O-])c1N(CCI)CCI [IIb-14, 2-[Bis(2-Iodoethyl)Amino]-N-(2-Hydroxyethyl)-3,5-Dinitrobenzamide] | 129 to 131 | 12 | 0.8 | 27 | 1 | – |
| O=C(NCCOP(=O)(O)O)c1cc([N+](=O)[O-])cc([N+](=O)[O-])c1N(CCBr)CCBr [Ib-7P, 2-[[2-[Bis(2-Bromoethyl)Amino]-3,5-Dinitrobenzoyl]Amino]Ethyl Dihydrogen Phosphate] | – | – | – | – | – | over-all survival [1]: 40%; time to first treatment failure [1]: 77 days; Log kill, cmpd only, Mean ± sem [2, 3]: 1.20 ± 0.07; Activity against hypoxic cells, Rif-1 excision assay (Rif-1 tumour; single dose at MTD after 15 Gy): exceed that of its parent alcohol (IIb-7); also recorded: more active against hypoxic cells than the reference hypoxic cytotoxin tirapazamine; Activity against oxic tumour cells, Rif-1 excision assay (Rif-1 tumour; single dose at MTD without radiation): significant; MTD (in vivo; CD-1 nude, ip): 750 µmol/kg; MTD (in vivo): 750 µmol/kg |
| O=C(NCCOP(=O)(O)O)c1cc([N+](=O)[O-])cc([N+](=O)[O-])c1N(CCI)CCI [Ib-14P, 2-[[2-[Bis(2-Iodoethyl)Amino]-3,5-Dinitrobenzoyl]Amino]Ethyl Dihydrogen Phosphate] | – | – | – | – | – | Log kill, cmpd only, Mean ± sem [2, 3]: 0.92 ± 0.06; MTD (in vivo; CD-1 nude, ip): 562 µmol/kg |
| N[C@@H](Cc1ccc(N(CCCl)CCCl)cc1)C(=O)O [Melphalan, reference compound] | – | – | – | – | – | Activity against hypoxic cells [2]: lacked activity; MTD (in vivo; CD-1 nude, ip): 42.2 µmol/kg |
| Nc1n[n+]([O-])c2ccccc2[n+]1[O-] [Tirapazamine, reference compound] | – | – | – | – | – | Activity against hypoxic cells [2]: lacked activity; Log kill, cmpd only, Mean ± sem ([2]; in vivo, ip): −0.02 ± 0.01; MTD (in vivo; CD-1 nude, ip): 316 µmol/kg |

— patent US7629332B2, “Nitrophenyl mustard and nitrophenylaziridine alcohols and their corresponding phosphates and their use as targeted cytotoxic agents” (Auckland Uniservices Limited, priority 2003, dated 2009)
